Results on two molecules are retold here after patent US20030158118A1, “Combination of cimetidine and cysteine derivatives for treating cancer” (priority 2001, published 2003).

The test system of the assay is CT26 colorectal cancer cells. Briefly: Tumor growth in BALB/c mice grafted with syngenic CT26 colorectal cancer cells. In kind it is in vivo. Particulars: day 33; drinking water: compound 20 1.5 mg/ml (150 mg/kg daily), cimetidine or N-acetyl cysteine 0.75 mg/ml (75 mg/kg daily); vs vehicle. As to the method: The effect of a complex of the invention and the effect of the components of the complex is tested on tumor growth in BALB/c mice grafted with syngenic CT26 colorectal cancer cells. The aim of the study is to compare the effect on tumor growth of the complex of the invention versus the effect of the two components of the complex individually. […] Compound 20, cimetidine and […] dissolved in drinking water. […] The solutions are available ad libitum in the entire study period. […] The doses of cimetidine and N-acetylcysteine are selected to correspond to the doses of each individual compound obtained by administration of […] of compound 20. In these studies, female BALB/c mice with an age of 6 weeks are used. Ten mice are included per group. The mice are caged in standard cages at a temperature of 21° C.-23° C. controlled via the ambient ventilation system in the laboratory. Light cycle is 12-hour dark and 12-hour light (lights on 06.00). Diet is Altromin 1314 special formulation, Produced by Altromin Denmark, Chr. Pedersen A/S, 4100 Ringsted, Denmark. Water is acidified with citric acid. Diet and water is administered ad libitum. The mice are randomised to test groups of ten mice. After one week of acclimatisation each mouse is injected subcutaneously with appr. […] Tumor diameters are measured in two dimensions using a digital slide gauge.

The molecule `CC(=O)N[C@@H](CS)C(=O)O` [N-acetyl cysteine] returned a tumor growth inhibited of 19%.

In turn, `CN/C(=N/CCSCc1nc[nH]c1C)NC#N` [cimetidine] had a tumor growth inhibited of 8%.
